Source: patent publication US6420387B1, “Farnesyl protein transferase inhibiting (imidazol-5-yl) methyl-2-quinolinone derivatives” (Janssen Pharmaceutica N.V., priority 1995, dated 2002)
Structures can show the parent of a compound that is named as a salt.

What was measured:
[1] = target: T1, Human farnesyl protein transferase (Homo sapiens, UniProt P49354+P49356); assay: In vitro assay for inhibition of farnesyl protein transferase (scintillation proximity assay); assay type: biochemical; conditions: concentration producing 50% inhibition of enzyme activity; [3H]-farnesylpyrophosphate and biotinylated lamin B peptide substrates, 60 min at 37° C.
T1 construct: grown as monolayer cell cultures were used as a source of human enzyme; endogenous in cells; host or cells: KHOS (Kirsten virus transformed human osteosarcoma) cells, grown as solid tumors in nude mice or as monolayer cultures; 30-50% ammonium sulfate fraction, then Q Fast Flow Sepharose
Procedure: Human farnesyl protein transferase was prepared essentially as described (Y. Reiss et al., Methods: A Companion to Methods in Enzymology vol 1, 241-245, 1990). Kirsten virus transformed human osteosarcoma (KHOS) cells (American Type Culture Collection, Rockville, Md., USA) grown as solid tumors in nude mice or grown as monolayer cell cultures were used as a source of human enzyme. Briefly, cells or tumors were homogenized in buffer containing 50 mM Tris, 1 mM EDTA, 1 mM EGTA and 0.2 mM phenylmethylsulfonylfluoride (pH 7.5). The homogenates were centrifuged 28,000×g for 60 min and the supernatants collected. A 30-50% ammonium sulfate fraction was prepared, and the resulting precipitate was resuspended in a small (10 to 20 ml) volume of dialysis buffer containing 20 mM Tris 1 mM dithiothreitol and 20 μM ZnCl2. The ammonium sulfate fraction was dialyzed overnight against two changes of the same buffer. The dialyzed material was applied to a 10×1 cm Q Fast Flow Sepharose (Pharmacia LKB Biotechnology Inc., Piscataway, N.J., USA) which had been preequilibrated with 100 ml of dialysis buffer supplemented with 0.05 M NaCl. The column was washed with an additional 50 ml of dialysis buffer plus 0.05 M NaCl followed by a gradient from 0.05 M to 0.25 M NaCl prepared in dialysis buffer. The enzyme activity was eluted with a linear gradient of 0.25 to 1.0 M NaCl prepared in the dialysis buffer. Fractions containing 4 to 5 ml volumes of column eluate were collected and analyzed for farnesyl protein transferase activity. Fractions with enzyme activity were pooled and supplemented with 100 μM ZnCl2. Enzyme samples were stored frozen at −70° C.
The activity of farnesyl protein transferase was measured using the Farnesyl Transferase [^3H] Scintillation Proximity Assay (Amersham International plc., England) under the conditions specified by the manufacturer. To assay for inhibitors of the enzyme, 0.20 μCi of the [^3H]-famesylpyrophosphate substrate and the biotinylated lamin B peptide substrate (biotin-YRASNRSCAIM) were mixed with test compounds in a reaction buffer consisting of 50 mM HEPES, 30 mM MgCl2, 20 mM KCl, 5 mM dithiothreitol, 0.01% Triton X-100. Test compounds were delivered in a 10 μl volume of dimethylsulfoxide (DMSO) to achieve concentrations of 1 and 10 μg/ml in a final volume of 100 μl. The reaction mixture was warmed to 37° C. The enzyme reaction was started by adding 20 μl of diluted human farnesyl protein transferase. Sufficient enzyme preparation was added to produce between 4000 to 15000 cpm of reaction product during the 60 min of reaction incubation at 37° C. Reactions were terminated by the addition of STOP/scintillation proximity bead reagent (Amersham). The reaction product [^3H]-farnesyl-(Cys)-biotin lamin B peptide was captured on the streptavidin linked scintillation proximity bead. The amount of [^3H]-farnesyl-(Cys)-biotin lamin B peptide synthesized in the presence or absence of test compounds was quantified as cpm by counting on a Wallac Model 1480 Microbeta Liquid Scintillation Counter. The cpm of product was considered to be farnesyl protein transferase activity. The protein farnesyl transferase activity observed in the presence of test compound was normalized to farnesyl transferase activity in the presence of 10% DMSO and expressed as per cent inhibition. […] The effects of test compounds in these studies were calculated as IC50 (concentration of test compound producing 50% inhibition of enzyme activity) using the LGICV50 computer program written by the Science Information Division of R. W. Johnson Pharmaceutical Research Institute (Spring House, Pa., USA) on a VAX computer.

[2] = test system: NIH 3T3 cells transformed by the T24 activated human H-ras gene; assay: Ras-transformed cell phenotype reversion assay; assay type: cell-based, mouse; conditions: cell counts after 72 hours proliferation, corrected for initial input of 200,000 cells
Description: Insertion of activated oncogenes such as the mutant ras gene into mouse NIH 3T3 cells converts the cells to a transformed phenotype. The cells become tumorigenic, display anchorage independent growth in semi-solid medium and lose contact inhibition. Loss of contact inhibition produces cell cultures which no longer form uniform monolayers. Rather, the cells pile up into multicellular nodules and grow to very high saturation densities in plastic tissue culture dishes. Agents such as protein farnesyl transferase inhibitors which revert the ras transformed phenotype restore the uniform monolayer growth pattern to cells in culture. This reversion is easily monitored by counting the number of cells in tissue culture plates. Transformed cells will achieve higher cell numbers than cells which have reverted to an untransformed phenotype. Compounds which revert the transformed phenotype should produce antitumor effects in tumors bearing ras gene mutations.
Compounds are screened in tissue culture in NIH 3T3 cells transformed by the T24 activated human H-ras gene. Cells are seeded at an initial density of 200,000 cells per well (9.6 cm^2 surface area) in six-well cluster tissue culture plates. Test compounds are immediately added to 3.0 ml cell growth medium in a 3.0 μl volume of DMSO, with a final concentration of DMSO in the cell growth medium of 0.1%. The test compounds are run at concentrations of 5, 10, 50, 100, and 500 nM along with a DMSO treated vehicle control. (In case a high activity is observed at 5 nM, the test compound is tested at even lower concentrations.) The cells are allowed to proliferate for 72 hours. Then the cells are detached in 1.0 ml trypsin-EDTA cell dissociation medium and counted on a Coulter particle counter.
Cell numbers expressed as cells per well are measured using a Coulter Particle Counter.
All cell counts were corrected for the initial cell input density by subtracting 200,000.
Control cell counts=[cell counts from cells incubated with DMSO vehicle −200,000].
Test compound cell counts=[cell counts from cells incubated with test compound −200,000]. [formula]
IC50 (i.e. the test compound concentration required to inhibit enzyme activity by 50%) is calculated if sufficient data are available, summarized in table 11.

SMILES | IC50 [1] | IC50 ([2]; NIH3T3) | IC50 [2]
Cn1cncc1C(O)(c1ccc(Cl)cc1)c1ccc2c(c1)c(-c1ccccc1)cc(=O)n2C (centres unmarked) [Compound 1] | 0.006 µM |  | 
Cn1cncc1C(c1ccc(Cl)cc1)c1ccc2[nH]c(=O)cc(-c3cccc(Cl)c3)c2c1 (centres unmarked) [Compound 7] | 0.0016 µM |  | 
CCc1cccc(-c2cc(=O)n(C)c3ccc(C(N)(c4ccc(Cl)cc4)c4cncn4C)cc23)c1 (centres unmarked) [Compound 98] | 0.0064 µM | 0.015 µM | 
Cn1cncc1C(OCCCO)(c1ccc(Cl)cc1)c1ccc2c(c1)c(-c1cccc(Cl)c1)cc(=O)n2C (centres unmarked) [Compound 15] | 0.0184 µM |  | 
Cn1cncc1C(c1ccc(Cl)cc1)c1ccc2c(c1)c(-c1cccc(Cl)c1)cc(=O)n2C (racemic) [Compound 5, (±)-4-(3-chlorophenyl)-6-[(4-chlorophenyl)(1-methyl-1H-imidazol-5-yl)methyl]-1-methyl-2(1H)-quinolinone ethanedioate(1:1).mono-hydrate] | 0.025 µM | 0.032 µM | 
Cn1cncc1C(c1ccc(Cl)cc1)c1ccc2c(c1)c(-c1cccc(Cl)c1)cc(=S)n2C (racemic) [Compound 128, (±)-4-(3-chlorophenyl)-6-[(4-chlorophenyl)(1-methyl-1H-imidazol-5-yl)methyl]-1-methyl-2(1H)-quinolinethione] |  | 0.177 µM | 
COCC(=O)NC(c1ccc(Cl)cc1)(c1ccc2c(c1)c(-c1cccc(Cl)c1)cc(=O)n2C)c1cncn1C (racemic) [Compound 89, (±)-N-[(4-chlorophenyl)[4-(3-chlorophenyl)-1,2-dihydro-1-methyl-2-oxo-6-quinolinyl](1-methyl-1H-imidazol-5-yl)methyl]-2-methoxyacetamide monohydrochloride] |  | 0.024 µM | 
CNC(c1ccc(Cl)cc1)(c1ccc2c(c1)c(-c1cccc(Cl)c1)cc(=O)n2C)c1cncn1C (racemic) [Compound 61, (±)-4-(3-chlorophenyl)-6-[(4-chlorophenyl)(methylamino)(1-methyl-1H-imidazol-5-yl)methyl]-1-methyl-2(1H)-quinolinone monohydrate] | 0.0011 µM | 0.31 µM | 
CCCc1cccc(-c2cc(=O)n(C)c3ccc(C(O)(c4ccc(Cl)cc4)c4cncn4C)cc23)c1 (centres unmarked) [Compound 99] | 0.0017 µM |  | 
CCc1cccc(-c2cc(=O)n(C)c3ccc(C(O)(c4ccc(Cl)cc4)c4cncn4C)cc23)c1 (centres unmarked) [Compound 97] | 0.0029 µM |  | 
CCCOc1cccc(-c2cc(=O)n(C)c3ccc(C(c4ccc(Cl)cc4)c4cncn4C)cc23)c1 (centres unmarked) [Compound 52] | 0.0057 µM |  | 
CN(C)C(c1ccc(Cl)cc1)(c1ccc2c(c1)c(-c1cccc(Cl)c1)cc(=O)n2C)c1cncn1C (centres unmarked) [Compound 66] | 0.004 µM | 0.019 µM | 
Cn1cncc1C(c1ccc(Cl)cc1)(c1ccc2c(c1)c(-c1cccc(Cl)c1)cc(=O)n2C)n1ccnc1 (centres unmarked) [Compound 60] | 0.00062 µM | 0.07 µM | 
Cn1cncc1C(O)(c1ccc(Cl)cc1)c1ccc2c(c1)c(-c1cccc(Cl)c1)cc(=O)n2C (centres unmarked) [Compound 23, (A)-4-(3-chlorophenyl)-6-[(4-chlorophenyl)-hydroxy(1-methyl-1H-imidazol-5-yl)methyl]-1-methyl-2(1H)-quinolinone ethanedioate (1:1)] |  |  | 0.395 µM
Cn1cncc1C(O)(c1ccc(Cl)cc1)c1ccc2c(c1)c(-c1cccc(Cl)c1)cc(=O)n2C (centres unmarked) [Compound 24, (B)-4-(3-chlorophenyl)-6-[(4-chlorophenyl)hydroxy(1-methyl-1H-imidazol-5-yl)methyl]-1-methyl-2(1H)-quinolinone ethanedioate(1:1)] | 0.0027 µM | 0.016 µM | 
CCCOc1cccc(-c2cc(=O)n(C)c3ccc(C(O)(c4ccc(Cl)cc4)c4cncn4C)cc23)c1 (centres unmarked) [Compound 37] | 0.0101 µM |  | 
CCOCCCOC(c1ccc(Cl)cc1)(c1ccc2c(c1)c(-c1cccc(Cl)c1)cc(=O)n2C)c1cncn1C (centres unmarked) [Compound 29] | 0.057 µM | 0.345 µM | 
Cn1cncc1C(O)(c1ccc(Cl)cc1)c1ccc2c(c1)c(-c1cccc(OCCO)c1)cc(=O)n2C (centres unmarked) [Compound 63] | 0.001 µM | 0.053 µM | 
Cn1c(=O)cc(-c2cccc(Cl)c2)c2cc(C(c3ccc(Cl)cc3)c3c[nH]cn3)ccc21 (centres unmarked) [Compound 45] | 1 µM |  | 
CCOC(=O)CC(c1ccc(Cl)cc1)(c1ccc2c(c1)c(-c1cccc(Cl)c1)cc(=O)n2C)c1cncn1C (centres unmarked) [Compound 58] | 0.0028 µM | 0.096 µM | 
Cn1cncc1C(N)(c1ccc(Cl)cc1)c1ccc2c(c1)c(-c1cccc(Cl)c1)c(Cl)c(=O)n2C (racemic) [Compound 143, (±)-6-[amino(4-chlorophenyl)(1-methyl-1H-imidazol-5-yl)methyl]-3-chloro-4-(3-chlorophenyl)-1-methyl-2(1H)-quinolinone] |  | 0.082 µM | 
COc1cccc(-c2cc(=O)n(C)c3ccc(C(O)(c4ccc(Cl)cc4)c4cncn4C)cc23)c1 (racemic) [Compound 36, (±)-6-[(4-chlorophenyl)hydroxy(1-methyl-1H-imidazol-5-yl)methyl]-4-(3-methoxyphenyl)-1-methyl-2(1H)-quinolinone] | 0.0028 µM |  | 
CCCc1cccc(-c2cc(=O)n(C)c3ccc(C(N)(c4ccc(Cl)cc4)c4cncn4C)cc23)c1 (centres unmarked) [Compound 100] | 0.00052 µM | 0.011 µM | 
Cn1c(=O)cc(-c2ccccc2)c2cc(C(c3ccc(Cl)cc3)c3c[nH]cn3)ccc21 (centres unmarked) [Compound 42] | 0.91 µM |  | 
COC(c1ccc(Cl)cc1)(c1ccc2c(c1)c(-c1cccc(Cl)c1)cc(=O)n2C)c1cncn1C (racemic) [Compound 4, (±)-4-(3-chlorophenyl)-6-[(4-chlorophenyl)methoxy(1-methyl-1H-imidazol-5-yl)methyl]-1-methyl-2(1H)-quinolinone ethanedioate(1:1).dihydrate] | 0.024 µM |  | 
Cn1cncc1C(CCl)(c1ccc(Cl)cc1)c1ccc2c(c1)c(-c1cccc(Cl)c1)cc(=O)n2C (racemic) [Compound 69, (±)-6-[2-chloro-1-(4-chlorophenyl)-1-(1-methyl-1H-imidazol-5-yl)ethyl]-4-(3-chlorophenyl)-1-methyl-2(1H)-quinolinone ethanedioate (1:1)] | 0.0034 µM | 0.014 µM | 
Cn1cncc1C(O)(c1ccc(Cl)cc1)c1ccc2c(c1)c(-c1cccc(O)c1)cc(=O)n2C (centres unmarked) [Compound 64] | 0.0116 µM |  | 
